Paper PMC8795197, “Safety and activity of WX-0593 (Iruplinalkib) in patients with ALK- or ROS1-rearranged advanced non-small cell lung cancer: a phase 1 dose-escalation and dose-expansion trial” (Signal Transduction and Targeted Therapy, 2022)
Values joined by “and” are separate entries in the source; they are usually repeats but may differ in a detail not shown here. Equal values may be shown once. “Also recorded” adds a separate entry of the source. Read-outs that look alike come from different tables or passages of the source.

Key:
Ba/F3 ALK-V1180L = assay: Growth of transfected Ba/F3 cells (CellTiter-Glo, 3 days); format: cell-based; conditions: Mus musculus, BaF3; ALK-V1180L; read-out: IC50
Description: (§1) Harvest cells during the logarithmic growth period and count cells using blood counting chamber. Adjust cell concentration with culture medium. Add 90µl cell suspensions to two 96-well plates to the final cell density as described before. Incubate the plate overnight in humidified incubator at 37℃ with 5% CO2. Dispense 10µl drug solution (10×) to each well (triplicate for each concentration), and the DMSO final concentration in culture medium is 0.1% [v/v]. Culture the plates for 3 days. On Day 3, Read luminescent using Multi Label Reader. The software of GraphPad Prism was used to calculate IC50. The graphical curves were fitted using a nonlinear regression model with a sigmoidal dose response.

Ba/F3 ALK-L1152R = assay: as above; format: cell-based; conditions: Mus musculus, BaF3; ALK-L1152R; read-out: IC50
Description: as §1

Ba/F3 ALK-G1269A = assay: as above; format: cell-based; conditions: Mus musculus, BaF3; ALK-G1269A; read-out: IC50
Description: as §1

Ba/F3 ALK-F1174C = assay: as above; format: cell-based; conditions: Mus musculus, BaF3, ALK-F1174C, read-out: IC50
Description: as §1

Ba/F3 ALK-T1151Tins = assay: as above; format: cell-based; conditions: Mus musculus, BaF3; ALK-T1151Tins; read-out: IC50
Description: as §1

Ba/F3 ALK-L1152P = assay: as above; format: cell-based; conditions: Mus musculus, BaF3; ALK-L1152P; read-out: IC50
Description: as §1

Ba/F3 ALK-C1156Y = assay: as above; format: cell-based; conditions: Mus musculus, BaF3; ALK-C1156Y; read-out: IC50
Description: as §1

[1] = tested on: advanced NSCLC patients with ALK or ROS1 rearrangement; assay: Phase 1 trial: safety (adverse events, DLT, MTD; NCI CTCAE 4.03); format: in vivo
Description: This FIH, single arm, multicenter, phase 1 study was conducted in advanced NSCLC patients with ALK or ROS1 rearrangement, composed of the dose-escalation and dose-expansion phases. The dose-escalation and dose-expansion phases were conducted at 4 and 38 centers in mainland China, respectively (Supplementary Table S1), and were done in compliance with the Declaration of Helsinki and International Council for Harmonisation guidelines for Good Clinical Practice. The study protocol and amendments were approved by the independent ethics committee at every participating site. Written informed consent was provided by all patients before being screened for enrolment.
ALK and ROS1 rearrangements were established by immunohistochemistry, reverse transcription-polymerase chain reaction (PCR), amplification refractory mutation system-PCR, fluorescence in situ hybridization, or next-generation sequencing. Patients must have at least one measurable lesion as defined by Response Evaluation Criteria in Solid Tumors (RECIST) version 1.1. Other key eligibility criteria included an age of 18–70 years, an Eastern Cooperative Oncology Group performance status of 0 or 1, a life expectancy of at least 12 weeks, and adequate organ function, including adequate function of bone marrow (absolute neutrophil count ≥1.5 × 10^9/L, platelets ≥100 × 10^9/L, hemoglobin ≥90 g/L) and liver function (total bilirubin ≤1.5× upper limit of normal [ULN], ALT and AST ≤2.5× ULN [≤5.0× ULN for liver metastasis patients]).
In the dose-escalation phase, a standard 3 + 3 design was used to determine the MTD.[29]
Three patients were assigned to each dose level.
Patients continued treatment until documented disease progression, unacceptable toxicity, withdrawal of consent, the start of a new anticancer treatment, death, loss of follow-up, or end of the study (whichever occurred first). Patients were permitted to continue treatment after progression if they were still experiencing clinical benefit, at the discretion of the investigator.
For grade ≥3 AEs (also including grade ≥2 cardiac dysfunction and renal dysfunction, etc.), dose interruption could occur.
Patients performed imaging evaluation at baseline, with computed tomography or magnetic resonance imaging of the chest, abdomen, pelvis, and brain. […] In the dose-expansion phase, tumor response was assessed every 6 weeks until 48 weeks and every 12 weeks thereafter until documented disease progression. If responses (CR or PR) were observed, repeat assessments were required to confirm the responses 4 weeks after the initial evaluation. Tumor responses were assessed by local investigators according to RECIST 1.1.
Safety parameters included TEAEs, SAEs, and TRAEs.

[2] = TEAE, Grade 1–2, total (n = 152)
[3] = TEAE, ≥Grade 3, total (n = 152)
[4] = TEAE, ≥Grade 3, dose: 30, 60, 90, 120, 180, 240, 300 mg
[5] = TRAE, ≥grade 3, dose: 30, 60, 90, 120, 180, 240, 300 mg

COc1cc(N2CCC3(CCN(C)CC3)CC2)ccc1Nc1ncc(Cl)c(Nc2ccccc2P(C)(C)=O)n1 [WX-0593]
IC50 (Ba/F3 ALK-V1180L): 8.4 nM | IC50 (Ba/F3 ALK-L1152R): 4.6 nM | IC50 (Ba/F3 ALK-G1269A): 36 nM | IC50 (Ba/F3 ALK-F1174C; first listing (r10)): 36 nM | IC50 (Ba/F3 ALK-F1174C; second listing (r15)): 29.3 nM | IC50 (Ba/F3 ALK-T1151Tins): 12 nM | IC50 (Ba/F3 ALK-L1152P): 1.5 nM | IC50 (Ba/F3 ALK-C1156Y): 9 nM | Dizziness, patients n (%) [1]: 0 | ALT elevated, patients n (%) [1, 2]: 39 (26%) | AST elevated, patients n (%) [1, 2]: 41 (27%) | CPK elevated, patients n (%) [1, 2]: 31 (20%) | Dizziness, patients n (%) [1, 2]: 16 (11%) | Headache, patients n (%) [1, 2]: 14 (9%) | Hypertension, patients n (%) [1, 2]: 24 (16%) | Hypertriglyceridemia, patients n (%) [1, 2]: 32 (21%) | Upper respiratory infection, patients n (%) [1, 2]: 16 (11%) | diarrhea, patients n (%) [1, 2]: 21 (14%) | hypercholesterolemia, patients n (%) [1, 2]: 42 (28%) | hyperlipidemia, patients n (%) [1, 2]: 21 (14%) | nausea, patients n (%) [1, 2]: 48 (32%) | rash, patients n (%) [1, 2]: 19 (13%) | γ-GGT elevated, patients n (%) [1, 2]: 12 (8%) | Headache, patients n (%) ([1]; TEAE, all grade, total (n = 152)): 14 (9%) | ALT elevated, patients n (%) [1, 3]: 6 (4%) | AST elevated, patients n (%) [1, 3]: 6 (4%) | CPK elevated, patients n (%) [1, 3]: 0 | Headache, patients n (%) [1, 3]: 0 | Hypertension, patients n (%) [1, 3]: 9 (6%) | Hypertriglyceridemia, patients n (%) [1, 3]: 5 (3%) | Upper respiratory infection, patients n (%) [1, 3]: 1 (1%) | diarrhea, patients n (%) [1, 3]: 1 (1%) | hypercholesterolemia, patients n (%) [1, 3]: 5 (3%) | hyperlipidemia, patients n (%) [1, 3]: 1 (1%) | nausea, patients n (%) [1, 3]: 0 | rash, patients n (%) [1, 3]: 1 (1%) | vomiting, patients n (%) [1, 3]: 0 | γ-GGT elevated, patients n (%) [1, 3]: 5 (3%) | CPK elevated, patients n (%) [1, 4]: 0 | Dizziness, patients n (%) [1, 4]: 0 | Headache, patients n (%) [1, 4]: 0 | nausea, patients n (%) [1, 4]: 0 | vomiting, patients n (%) [1, 4]: 0 | ALT elevated, patients n (%) ([1]; TRAE, grade 1-2, total (n=152)): 38(25%) | AST elevated, patients n (%) ([1]; TRAE, grade 1-2, total (n=152)): 41(27%) | CPK elevated, patients n (%) ([1]; TRAE, grade 1-2, total (n=152)): 25(16%) | Hypertension, patients n (%) ([1]; TRAE, grade 1-2, total (n=152)): 18(12%) | Hypertriglyceridemia, patients n (%) ([1]; TRAE, grade 1-2, total (n=152)): 28(18%) | diarrhea, patients n (%) ([1]; TRAE, grade 1-2, total (n=152)): 21(14%) | hypercholesterolemia, patients n (%) ([1]; TRAE, grade 1-2, total (n=152)): 39(26%) | hyperlipidemia, patients n (%) ([1]; TRAE, grade 1-2, total (n=152)): 15(10%) | nausea, patients n (%) ([1]; TRAE, grade 1-2, total (n=152)): 43(28%) | rash, patients n (%) ([1]; TRAE, grade 1-2, total (n=152)): 15(10%) | vomiting, patients n (%) ([1]; TRAE, grade 1-2, total (n=152)): 37(24%) | γ-GGT elevated, patients n (%) ([1]; TRAE, grade 1-2, total (n=152)): 10(7%) | CPK elevated, patients n (%) ([1]; TRAE, ≥grade 3, total (n=152)): 0 | diarrhea, patients n (%) ([1]; TRAE, ≥grade 3, total (n=152)): 1(1%) | hypercholesterolemia, patients n (%) ([1]; TRAE, ≥grade 3, total (n=152)): 1(1%) | hyperlipidemia, patients n (%) ([1]; TRAE, ≥grade 3, total (n=152)): 0 | nausea, patients n (%) ([1]; TRAE, ≥grade 3, total (n=152)): 0 | rash, patients n (%) ([1]; TRAE, ≥grade 3, total (n=152)): 1(1%) | vomiting, patients n (%) ([1]; TRAE, ≥grade 3, total (n=152)): 0 | CPK elevated, patients n (%) [1, 5]: 0 | hyperlipidemia, patients n (%) [1, 5]: 0 | nausea, patients n (%) [1, 5]: 0 | vomiting, patients n (%) [1, 5]: 0 | maximum tolerated dose (MTD) ([1]; dose-escalation 30–300 mg): could not be identified; also recorded: not reached | dose-limiting toxicities (DLTs) ([1]; dose-escalation, 300 mg, in 1 of 3 patients: grade 3 QT interval prolonged, grade 2 chronic heart failure): Two | AE led to dose interruption, patients n (%) ([1]; total (n=152)): 30(20%) | AE led to dose interruption, treatment-related, patients n (%) ([1]; total (n=152)): 30 (20%) and 27(18%) | AE led to dose reduction, treatment-related, patients n (%) ([1]; total (n=152)): 4 (3%) | AE led to treatment termination, patients n (%) ([1]; total (n=152)): 11(7%) | Adverse events, total, patients n (%) ([1]; total (n=152)): 148 (97%) | Death during treatment, not related with disease progression, patients n (%) ([1]; total (n=152)): 6(4%) | Death during treatment, related with disease progression, patients n (%) ([1]; total (n=152)): 1(1%) | Discontinuation due to adverse event, patients n (%) ([1]; total (n=152)): 11(7%) | Discontinuation due to adverse event, treatment-related, patients n (%) ([1]; total (n=152)): 8(5%) | Serious adverse event, patients n (%) ([1]; total (n=152)): 25 (16%) | ≥grade 3 adverse event, patients n (%) ([1]; total (n=152)): 53 (35%)
